Tested on: human IgG+IgM serum antibodies
Experiment: OppA2 peptide ELISA
Assay type: binding
Settings: for binding of antibodies present in RPR+ serum: 26 RPR+ sera
Procedure: 96-well plates (Nunc Maxisorp) were coated with 10 μg/mL peptide, diluted in 0.1M carbonate-bicarbonate buffer, pH 9.4 (50 μL per well), for 1 hour at room temperature. Blocking buffer 1% bovine serum albumin (BSA) in PBS was added to the wells (250 μL/well) and incubated overnight at 4° C. Wells were washed three times with PBS containing 0.05% Tween 20 (PBS-T) and incubated for 2 hours at room temperature with human samples diluted 1:100 in PBS-1% BSA. Each plate included samples from patients and healthy donors, and all samples were assayed in triplicate. After washing, wells were incubated for 1 hour at RT with a 1:15,000 dilution of HRP-conjugated secondary antibody against human IgG+IgM. Reactions were developed for 30 minutes with 3,3′,5,5′-tetramethylbenzidine (TMB) in the dark at room temperature and the reaction was stopped by the addition of 2N H2SO4. Optical densities were determined at 450 nm and 570 nm wavelengths using a SpectraMax Plus plate reader (Molecular Devices). The cutoff for seropositivity was defined as the mean optical density (OD) of the healthy control samples plus two standard deviations (SD).
OppA2 peptides react specifically with antibodies from Lyme disease patients. The nine peptides were further screened by ELISA using serum or plasma obtained from 104 patients with physician-diagnosed Lyme disease. All patients presented with one or more EM. Control sera was obtained from 45 healthy donors residing in a region of the United States non-endemic for LD, New Mexico. All peptides were incubated with serum in triplicate, and results were validated in two independent experiments. For each peptide, the threshold value for immunoreactivity was defined as the mean optical density (OD) value plus two standard deviations (SD) of results obtained using healthy donor sera. […] OppA2 (191-225) and OppA2 (381-400) were detected by only 2.2% and 6.7%, respectively, of the healthy donor samples.

[1] = Control sera, Healthy blood donors
[2] = Lyme Disease sera, Blood culture negative (localized)
[3] = Lyme Disease sera, Blood culture positive (disseminated)
[4] = Lyme Disease sera, EM positive (1st visit)
[5] = Lyme Disease sera, Elisa Positive

Sequence | reactivity of Lyme disease patient sera compared with sera from healthy donors (in words) | binding of antibodies present in RPR+ serum (in words) | Antibody positivity, % positive [1] [%] | Antibody positivity, N° positive/Total [1] | Antibody positivity, % positive (Control sera, RA) [%] | Antibody positivity, N° positive/Total (Control sera, RA) | Antibody positivity, % positive (Control sera, Syphilis (RPR+)) [%] | Antibody positivity, N° positive/Total (Control sera, Syphilis (RPR+)) | Antibody positivity, % positive [2] [%] | Antibody positivity, N° positive/Total [2] | Antibody positivity, % positive [3] [%] | Antibody positivity, N° positive/Total [3] | Antibody positivity, % positive [4] | Antibody positivity, N° positive/Total [4] | Antibody positivity, % positive (Lyme Disease sera, EM positive (1st visit), listed as OppA2 (286-310)) [%] | Antibody positivity, % positive [5] | Antibody positivity, N° positive/Total [5] | Antibody positivity, % positive (Lyme Disease sera, Wisconsin) | Antibody positivity, N° positive/Total (Lyme Disease sera, Wisconsin) | Antibody positivity, % positive (Lyme Disease sera, EM positive (1st visit), listed as OppA2 (276-300)) [%]
APIYIYGNSYLFRND (listed as Borrelia burgdorferi) [OppA2 (495-505)] | comparable to that of sera from healthy donors | – | – | – | – | – | – | – | – | – | – | – | – | – | – | – | – | – | – | –
IYFYSFNTHIKPLDNVKIRKALTLA (listed as Borrelia sp.) [OppA (286-310)] | – | did not bind | 4.4 | 2/45 | 0 | 0/30 | 0 | 0/26 | 0 | 0/13 | 0 | 0/10 | (43.6) % | 44/104 | 43.6 | (22.9) % | 8/35 | (78.3) % | 36/46 | –
SDYYSSAVNAIYFYAFNTHIKPLDN (listed as Borrelia sp.) [OppA (276-300)] | – | did not bind | 4.4 | 2/45 | 0 | 0/30 | 0 | 0/26 | 0 | 0/13 | 0 | 0/10 | (36.6) % | 34/104 | – | (22.9) % | 8/35 | (56.5) % | 26/46 | 36.6
